Assay results published in publication PMC9352624, “Going deeper into the toxicokinetics of synthetic cannabinoids: in vitro contribution of human carboxylesterases” (Archives of Toxicology, 2022).
Like-named read-outs stand apart in the source and are kept apart here.

Experiments:
hCES2 [1] = target: T1, hCES2 (Homo sapiens, UniProt O00748); assay: Enzyme kinetic studies of ester hydrolysis with hCES2; settings: for Vmax (relative), ester hydrolysis by hCES2: peak area ratio metabolite/internal standard
T1 sequence (O00748 27-559): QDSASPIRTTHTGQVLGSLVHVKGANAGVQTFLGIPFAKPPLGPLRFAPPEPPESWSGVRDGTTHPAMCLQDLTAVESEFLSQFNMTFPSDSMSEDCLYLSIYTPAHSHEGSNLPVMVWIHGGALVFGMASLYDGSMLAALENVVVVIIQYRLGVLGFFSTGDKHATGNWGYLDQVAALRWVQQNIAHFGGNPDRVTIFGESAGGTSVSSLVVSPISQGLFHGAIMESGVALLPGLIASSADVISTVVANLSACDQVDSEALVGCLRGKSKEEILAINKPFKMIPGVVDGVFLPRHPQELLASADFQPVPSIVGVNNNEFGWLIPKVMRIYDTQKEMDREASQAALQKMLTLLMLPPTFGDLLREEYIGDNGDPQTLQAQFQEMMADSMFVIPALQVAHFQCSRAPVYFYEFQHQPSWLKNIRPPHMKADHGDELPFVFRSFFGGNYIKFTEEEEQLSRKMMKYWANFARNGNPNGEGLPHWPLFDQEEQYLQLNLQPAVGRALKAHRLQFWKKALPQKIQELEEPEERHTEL

hCES1c [2] = target: T2, hCES1c (Homo sapiens, UniProt P23141); parameters: purchased Corning (Amsterdam, The Netherlands); host or cells: baculovirus transfected insect cells; method as in Meyer et al. [2015]; settings: identical incubation conditions and analyzing methods; ref Meyer et al. [2015]; read-out: Km, hCES1c, literature value; cited from earlier work
T2 sequence (P23141 18-566 isoform P23141-3 limits assumed): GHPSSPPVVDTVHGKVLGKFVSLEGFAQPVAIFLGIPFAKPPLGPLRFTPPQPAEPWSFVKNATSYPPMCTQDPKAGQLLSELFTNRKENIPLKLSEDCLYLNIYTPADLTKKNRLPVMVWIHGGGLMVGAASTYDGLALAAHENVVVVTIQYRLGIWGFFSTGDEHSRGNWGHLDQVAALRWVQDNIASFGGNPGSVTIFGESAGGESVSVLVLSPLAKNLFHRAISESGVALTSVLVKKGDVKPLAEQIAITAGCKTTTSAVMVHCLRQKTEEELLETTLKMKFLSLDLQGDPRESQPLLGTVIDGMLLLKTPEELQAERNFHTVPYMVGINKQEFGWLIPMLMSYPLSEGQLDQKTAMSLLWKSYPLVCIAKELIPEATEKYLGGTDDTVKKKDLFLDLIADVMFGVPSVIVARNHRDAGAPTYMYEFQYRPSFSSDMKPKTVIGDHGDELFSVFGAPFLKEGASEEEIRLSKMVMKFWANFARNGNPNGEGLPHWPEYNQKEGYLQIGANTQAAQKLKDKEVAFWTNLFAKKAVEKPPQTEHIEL

[3] = Initial activity screening with pooled human liver S9 fraction; settings: 100 µM substrate, 30 min, 37 °C, 2 µg/µL protein, LC–ITMS, mean n = 2
hCES2 [4] = target: T1, hCES2; parameters: purchased Corning (Amsterdam, The Netherlands); host or cells: baculovirus transfected insect cells; method as in Meyer et al. [2015]; settings: identical incubation conditions and analyzing methods; ref Meyer et al. [2015]; read-out: Km, hCES2, literature value; cited from earlier work
hCES1b [5] = target: T3, hCES1b (Homo sapiens, UniProt P23141); assay: Initial activity screening with recombinant hCES1b; settings: 100 µM substrate, 30 min, 37 °C, 0.2 µg/µL protein, LC–ITMS, mean n = 2
T3 sequence (P23141 18-567): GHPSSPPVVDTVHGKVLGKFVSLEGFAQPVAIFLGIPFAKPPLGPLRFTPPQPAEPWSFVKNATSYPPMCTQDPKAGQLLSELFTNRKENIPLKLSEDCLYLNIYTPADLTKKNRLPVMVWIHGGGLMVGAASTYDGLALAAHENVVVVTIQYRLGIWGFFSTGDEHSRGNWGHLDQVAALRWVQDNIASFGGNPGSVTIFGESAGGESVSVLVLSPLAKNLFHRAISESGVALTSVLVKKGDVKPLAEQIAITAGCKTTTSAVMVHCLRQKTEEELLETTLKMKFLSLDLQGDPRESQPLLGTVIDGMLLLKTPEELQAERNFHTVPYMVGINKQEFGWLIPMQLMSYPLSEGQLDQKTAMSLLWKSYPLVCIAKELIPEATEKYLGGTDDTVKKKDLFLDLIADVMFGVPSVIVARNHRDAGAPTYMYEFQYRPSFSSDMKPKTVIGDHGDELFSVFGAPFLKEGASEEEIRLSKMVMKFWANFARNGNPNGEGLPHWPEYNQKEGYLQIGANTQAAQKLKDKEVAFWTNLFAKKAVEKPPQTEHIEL

hCES1b [6] = target: T3, hCES1b; assay: Enzyme kinetic studies of ester hydrolysis with hCES1b; settings: for Vmax (relative), ester hydrolysis by hCES1b: peak area ratio metabolite/internal standard
hCES1c [7] = target: T2, hCES1c; assay: Initial activity screening with recombinant hCES1c; settings: 100 µM substrate, 30 min, 37 °C, 0.2 µg/µL protein, LC–ITMS, mean n = 2
hCES1c [8] = target: T2, hCES1c; assay: Enzyme kinetic studies of ester hydrolysis with hCES1c; settings: for Vmax (relative), ester hydrolysis by hCES1c: peak area ratio metabolite/internal standard
hCES2 [9] = target: T1, hCES2; assay: Initial activity screening with recombinant hCES2; settings: 100 µM substrate, 30 min, 37 °C, 0.2 µg/µL protein, LC–ITMS, mean n = 2
[10] = Initial activity screening with pooled human liver microsomes; settings: 100 µM substrate, 30 min, 37 °C, 2 µg/µL protein, LC–ITMS, mean n = 2
hCES1b [11] = target: T3, hCES1b; parameters: purchased Corning (Amsterdam, The Netherlands); host or cells: baculovirus transfected insect cells; method as in Meyer et al. [2015]; settings: identical incubation conditions and analyzing methods; ref Meyer et al. [2015]; read-out: Km, hCES1b, literature value; cited from earlier work

Compound: COc1ccc2c3c1O[C@H]1C(OC(C)=O)=CC[C@H]4[C@@H](C2)N(C)CC[C@]314 [Thebacon, reference compound]
- Clint (relative in vitro intrinsic clearance), hCES2 (hCES2 [1]; Clint = Vmax/Km): 0.89 AU/min/mg/µM
- Km (hCES2 [1]; read-out: Corrected Km, hCES2, current Km adjusted by 2.2-fold enzyme load activity factor): 247 µM
- Km (hCES2 [1]; read-out: Km, ester hydrolysis by hCES2, ± S.D., Michaelis–Menten fit, conditions of Table 1): 543 ± 87 µM
- Vmax (relative), ester hydrolysis by hCES2 (hCES2 [1]; ± S.D.): 482 ± 31 AU/min/mg
- Vmax (relative), ester hydrolysis by hCES2 (hCES2 [1]; ± S.D., listed as thebacon): 482 AU/min/mg
- Km (hCES1c [2]): 264 µM
- Relative amount of hydrolysis metabolite formed, pHLS9 [3]: about 80%
- Km (hCES2 [4]): 166 µM
- Relative amount of hydrolysis metabolite formed, hCES1b (hCES1b [5]): 47%
- Clint (relative in vitro intrinsic clearance), hCES1b (hCES1b [6]; Clint = Vmax/Km): 0.60 AU/min/mg/µM
- Km (hCES1b [6]; read-out: Corrected Km, hCES1b, current Km adjusted by 2.4-fold enzyme load activity factor): 273 µM
- Km (hCES1b [6]; read-out: Km, ester hydrolysis by hCES1b, ± S.D., Michaelis–Menten fit, conditions of Table 1): 655 ± 210 µM
- Vmax (relative), ester hydrolysis by hCES1b (hCES1b [6]; ± S.D.): 394 ± 40 AU/min/mg
- Vmax (relative), ester hydrolysis by hCES1b (hCES1b [6]; ± S.D., listed as thebacon): 394 AU/min/mg
- Relative amount of hydrolysis metabolite formed, hCES1c (hCES1c [7]): 10%
- Clint (relative in vitro intrinsic clearance), hCES1c (hCES1c [8]; Clint = Vmax/Km): 0.54 AU/min/mg/µM
- Km (hCES1c [8]; read-out: Corrected Km, hCES1c, current Km adjusted by 5.3-fold enzyme load activity factor): 289 µM
- Km (hCES1c [8]; read-out: Km, ester hydrolysis by hCES1c, ± S.D., Michaelis–Menten fit, conditions of Table 1): 1530 ± 470 µM
- Vmax (relative), ester hydrolysis by hCES1c (hCES1c [8]; ± S.D.): 831 ± 140 AU/min/mg
- Vmax (relative), ester hydrolysis by hCES1c (hCES1c [8]; ± S.D., listed as thebacon): 831 AU/min/mg
- Relative amount of hydrolysis metabolite formed, hCES2 (hCES2 [9]): 19%
- Relative amount of hydrolysis metabolite formed, pHLM [10]: about 80%
- Km (hCES1b [11]): 272 µM
